Measured values reported in US7776572B2, “Method for reducing loss of enzyme activity during storage” (Corning Incorporated, priority 1996, dated 2010).
Where two headings read alike, the source gives them in different places.

Tests used:
BSA = experiment: Polymer blends molded into petri dishes, BSA binding by colloidal gold; details: for BSA or FBS protein binding: blend in polypropylene or EVA
Description: (§1) Low binding non-ionic surfactant molecules were blended at 5% (except as noted in Table 13) into a base polymer using a twin screw extruder, then injection molded into the shape of 35 mm petri dishes. Proteins tested were BSA and Fetal Bovine Serum (FBS). Protein binding was determined using a colloidal gold staining procedure as described above. In the case of the polypropylene and EVA blends, a silver enhancer was used (Sigma Chem. Co., St, Louis, Mo., Kit #SE-100).

Horse IgG = experiment: Protein binding by colloidal gold staining, coated medium binding polystyrene plates; details: coated medium binding PS; IgG 10 μg/ml, pH 9.4
Description: Except where indicated, the non-ionic surfactants were applied to the hydrophobic surfaces being tested as a 0.1% (weight/volume) solution in isopropanol. A sufficient amount of coating solution was used to cover the surface being testing with a thin layer of the solution (e.g., 25 μl of the solution per well for a standard 24-well plate). In some cases, the solution was applied to surface by spraying; in others, it was poured onto the surface (into the well). Except where indicated, coated samples were either dried at 70° C. for 30 minutes in an air circulated oven or dried at room temperature overnight to evaporate the isopropanol.
Protein binding was determined in some examples using a colloidal gold straining procedure. In accordance with this procedure, colloidal gold becomes electrostatically attached to bound protein and is detected by measuring absorbance at 550 nanometers. Bio-Rad Laboratories' Colloidal Gold Total Protein Stain was used for this purpose, with absorbance being measured with a Cambridge Technologies Plate Reader (No. 7520).
The surfactants were coated onto medium binding polystyrene plates (Corning Costar No. 2587) as described in Material and Methods.
The plates were incubated with IgG as follows: 0.1 ml of Horse IgG (Pierce Labs) at a working concentration of 10 μg/ml in 0.10M NaHCO3 buffer (pH9.4) were added to each well, incubated 30 minutes on a rocker table, and rinsed with dI H2O. The plates were gold stained overnight (0.3 ml/well), rinsed in dI H2O, air dried, and absorbance was measured at 550 nm.

MDCK cells = experiment: Cytotoxicity of extracts of coated plates; assay type: cell-based; details: media extract of coated plates (37° C., 48 hours), MDCK 72 hours, Gram Crystal Violet
Description: Cytotoxicity experiments were performed using MDCK cells. The non-ionic surfactants tested were Pluronic L-121, L-122, and P-123; Span 80 and 85; and Brij 30, 72 and 93. These molecules were coated onto 24-well plates (Corning Costar #9447) from 0.1% (w/v) in isopropanol. Untreated polystyrene and normal tissue culture treated polystyrene (Corning Costar #25820) 24-well plates were used as controls. All plates were incubated at 37° C. for 48 hours with 2 ml/well of complete DMEM media containing 10% Fetal Bovine Serum (FBS). This incubation was performed in order to extract any potentially toxic compounds from the coated surface into the cell growth serum. The FBS solutions were then transferred to tissue culture treated polystyrene and each well was inoculated with ≈2×10^4 cells/well of MDCK cells, and then incubated at 37° C. for 72 hours in a 5% CO2 atmosphere. Cells were then stained with Gram Crystal Violet.

Fetal Bovine Serum (FBS) = experiment: Polymer blends molded into petri dishes, FBS protein binding by colloidal gold
Description: as §1

bound protein = experiment: Colloidal gold staining of bound protein after MDCK culture in media containing 5% FBS, visual; details: colloidal gold after cell culture, visual observation
Summary of the method: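 Polystyrene wells coated with non-ionic surfactants, gamma-sterilized at 1.5 Mrad, seeded with 5.6×10^4 MDCK cells per well in medium with 5% FBS and cultured 2 days at 37 °C, 5% CO2. After fixing, bound protein detected by colloidal gold staining; visual assessment only.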

IgG (horse) = experiment: IgG binding to 24-well plates, surfactant dried or not dried before H2O rinse, colloidal Au; details: 0.5% surfactant in H2O/isopropanol (90/10); for Absorbance (550 nm) Dried before H2O rinse: then rinsed 5x; for Absorbance (550 nm) H2O rinsed before drying: not dried, rinsed 5x immediately
Description: Duplicate 24-well plates were prepared as follows. Individual wells were filled with 3 ml of non-ionic surfactants at 0.5% (weight/volume) in H2O/isopropanol (90/10 weight/volume).
The duplicate plates were incubated for 30 minutes at room temperature on a rocker table and then emptied. One plate was tapped out and then allowed to dry at room temperature in a hood. It was then rinsed 5× with dI H2O. The second plate was not allowed to dry, but instead was immediately rinsed 5× with H2O. The plates were then tested for protein binding by filling each well with 0.5 ml of IgG (horse) at 10 μg/ml in PBS buffer and incubating for 30 minutes on a rocker table at room temperature. The plates were then rinsed with dI H2O and stained overnight with colloidal Au.

IgG = experiment: IgG/Au staining of coated polystyrene, type of endgroups
Description: Except where indicated, the non-ionic surfactants were applied to the hydrophobic surfaces being tested as a 0.1% (weight/volume) solution in isopropanol. A sufficient amount of coating solution was used to cover the surface being testing with a thin layer of the solution (e.g., 25 μl of the solution per well for a standard 24-well plate). In some cases, the solution was applied to surface by spraying; in others, it was poured onto the surface (into the well). Except where indicated, coated samples were either dried at 70° C. for 30 minutes in an air circulated oven or dried at room temperature overnight to evaporate the isopropanol. Protein binding was determined in some examples using a colloidal gold straining procedure. In accordance with this procedure, colloidal gold becomes electrostatically attached to bound protein and is detected by measuring absorbance at 550 nanometers. Bio-Rad Laboratories' Colloidal Gold Total Protein Stain was used for this purpose, with absorbance being measured with a Cambridge Technologies Plate Reader (No. 7520). The non-ionic surfactants listed in Table 6 were tested for their ability to produce a low binding surface using the techniques described in Materials and Methods. Polystyrene was used as the hydrophobic test surface and IgG/Au staining was used as the readout.

rat = details: cited from earlier work
[1] = blended at 1% into ethylene vinyl acetate
[2] = blended at 5% into ethylene vinyl acetate, silver enhancer
[3] = blended at 5% into polypropylene, silver enhancer

| Molecule | BSA or FBS protein binding (BSA) | Bound Protein Absorbance (550 nm) BSA (BSA; [1]) | Bound Protein Absorbance (550 nm) BSA (BSA; [2]) | Bound Protein Absorbance (550 nm) BSA (BSA; [3]) | Bound Protein Absorbance (550 nm) BSA (BSA; blended at 5% into polystyrene) | IgG Protein Binding Absorbance (550 nm) (Horse IgG) | cell growth and morphology (MDCK cells) | Bound Protein Absorbance (550 nm) FBS (Fetal Bovine Serum (FBS); [1]) | Bound Protein Absorbance (550 nm) FBS (Fetal Bovine Serum (FBS); [2]) | Bound Protein Absorbance (550 nm) FBS (Fetal Bovine Serum (FBS); [3]) | Bound Protein Absorbance (550 nm) FBS (Fetal Bovine Serum (FBS); blended at 5% into polystyrene) | Visual Color Upon Protein Staining (bound protein) | Absorbance (550 nm) Dried before H2O rinse (IgG (horse)) | Absorbance (550 nm) H2O rinsed before drying (IgG (horse)) | Bound Protein Absorbance at 550 nm (IgG) | LD50 (rat; in vivo) [grams/Kg] | LD50 (rat) [grams/Kg] |
| --- | --- | --- | --- | --- | --- | --- | --- | --- | --- | --- | --- | --- | --- | --- | --- | --- | --- |
| CCCCCCCC/C=C\CCCCCCCCOCCOCCO [PEO(2) OLEYL ETHER] | no detectable | 0.000 | 0.000 | 0.000 | 0.007 | 0.00 | confluent cell growth with normal cell morphology | 0.291 | 0.000 | 0.000 | 0.015 | None | 0.00 | 0.14-0.16 | 0.00 |  |  |
| CCCCCCCCCCCCOCCOCCOCCOCCO [PEO(4) LAURYL ETHER] |  |  |  |  |  | 0.00 | confluent cell growth with normal cell morphology |  |  |  |  | None | 0.08-0.10 | 0.13-0.16 |  | >5 |  |
| PEO(20) SORBITOL TRI-STEARATE |  |  |  |  |  | 0.00 |  |  |  |  |  | None |  |  | 0.00 |  |  |
| PEO(4) SORBITOL MONO-STEARATE |  |  |  | 0.016 |  | 0.00 |  |  |  | 0.057 |  | None |  |  |  |  |  |
| SORBITOL MONO-OLEATE | no detectable | 0.147 | 0.000 | 0.000 |  | 0.00 | confluent cell growth with normal cell morphology | 0.371 | 0.000 | 0.000 |  |  |  |  | 0.00 |  | >39 |
